According to ChEMBL document CHEMBL1156264, “Synthesis and structure-activity relationships of dimeric peptide antagonists of the human immunoglobulin G-human neonatal Fc receptor (IgG-FcRn) interaction” (J Med Chem, 2010):
Numbered stars: 1 amine (or outer) side, 2 acyl side, 3 side chain; on linkers, the order of the positions; unused ones are H or OH. Bridge positions count the residues as written; N and C are the ends. Square brackets hold non-standard residues; d marks the D form. Peptide text beside a SMILES is read from it. I, II: the chains in the order shown. X1 = O=C(C(=O)[*:2])[C@H](Cc1ccc(O)cc1)N[*:1]; NHCH2CH2N(Me)CH2CO = CN(CCN[*:1])CC(=O)[*:2]; NMeL = CN[C@@H](CC(C)C)C(=O)O; Pen = CC(C)(S)[C@H](N)C(=O)O; X2 = C(CN[*:1])NCCN[*:2]; Sar = CNCC(=O)O

Tests used:
[1] = molecular target: T1, IgG receptor FcRn large subunit p51 (Homo sapiens, UniProt P55899); assay: Inhibition of IgG binding to soluble human FcRn after 2 hrs by competition ELISA
[2] = molecular target: T1, IgG receptor FcRn large subunit p51; assay: Ratio of RF-Pen-TGHFG-Sar-NMeLeu-YPC IC50 to compound IC50 for soluble human FcRn

T1 sequence (P55899 whole entry): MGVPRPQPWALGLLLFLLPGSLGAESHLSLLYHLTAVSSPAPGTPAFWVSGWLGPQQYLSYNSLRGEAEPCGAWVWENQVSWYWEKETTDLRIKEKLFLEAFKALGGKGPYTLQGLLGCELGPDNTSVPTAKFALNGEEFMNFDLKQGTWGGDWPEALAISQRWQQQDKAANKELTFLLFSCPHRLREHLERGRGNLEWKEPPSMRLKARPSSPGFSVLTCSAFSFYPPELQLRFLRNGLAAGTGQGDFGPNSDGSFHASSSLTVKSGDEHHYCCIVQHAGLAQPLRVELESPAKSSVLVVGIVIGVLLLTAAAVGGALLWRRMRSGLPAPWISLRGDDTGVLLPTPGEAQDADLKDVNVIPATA

| Compound | IC50 [1] [nM] | Ratio IC50 [2] |
| --- | --- | --- |
| CC(C)C[C@H]1C(=O)N[C@@H](Cc2ccc(O)cc2)C(=O)C(=O)N2CCC[C@H]2C(=O)N[C@H](C(N)=O)CSSC(C)(C)[C@H](NC(=O)[C@H](Cc2ccccc2)NC(=O)[C@H](CCCNC(=N)N)NC(=O)CC[C@H](C)C(=O)N[C@@H](CCCNC(=N)N)C(=O)N[C@@H](Cc2ccccc2)C(=O)N[C@@H]2C(=O)N[C@@H]([C@@H](C)O)C(=O)NCC(=O)N[C@@H](Cc3c[nH]cn3)C(=O)N[C@@H](Cc3ccccc3)C(=O)NCC(=O)N(C)CC(=O)N(C)[C@@H](CC(C)C)C(=O)N[C@@H](Cc3ccc(O)cc3)C(=O)C(=O)N3CCC[C@H]3C(=O)N[C@H](C(N)=O)CSSC2(C)C)C(=O)N[C@@H]([C@@H](C)O)C(=O)NCC(=O)N[C@@H](Cc2c[nH]cn2)C(=O)N[C@@H](Cc2ccccc2)C(=O)NCC(=O)N(C)CC(=O)N1C | 5.6 | 90 |
| CC(C)C[C@H]1C(=O)N[C@@H](Cc2ccc(O)cc2)C(=O)C(=O)N2CCC[C@H]2C(=O)N[C@H](C(N)=O)CSSC(C)(C)[C@H](NC(=O)[C@H](Cc2ccccc2)NC(=O)[C@H](CCCNC(=N)N)NC(=O)CN(C)CC(=O)N[C@@H](CCCNC(=N)N)C(=O)N[C@@H](Cc2ccccc2)C(=O)N[C@@H]2C(=O)N[C@@H]([C@@H](C)O)C(=O)NCC(=O)N[C@@H](Cc3c[nH]cn3)C(=O)N[C@@H](Cc3ccccc3)C(=O)NCC(=O)N(C)CC(=O)N(C)[C@@H](CC(C)C)C(=O)N[C@@H](Cc3ccc(O)cc3)C(=O)C(=O)N3CCC[C@H]3C(=O)N[C@H](C(N)=O)CSSC2(C)C)C(=O)N[C@@H]([C@@H](C)O)C(=O)NCC(=O)N[C@@H](Cc2c[nH]cn2)C(=O)N[C@@H](Cc2ccccc2)C(=O)NCC(=O)N(C)CC(=O)N1C | – | 110 |
| CC(C)C[C@H]1C(=O)N[C@@H](Cc2ccc(O)cc2)C(=O)C(=O)N2CCC[C@H]2C(=O)N[C@H](C(=O)NCC(=O)NCCNCCNC(=O)CNC(=O)[C@@H]2CSSC(C)(C)[C@H](NC(=O)[C@H](Cc3ccccc3)NC(=O)[C@@H](N)CCCNC(=N)N)C(=O)N[C@@H]([C@@H](C)O)C(=O)NCC(=O)N[C@@H](Cc3c[nH]cn3)C(=O)N[C@@H](Cc3ccccc3)C(=O)NCC(=O)N(C)CC(=O)N(C)[C@@H](CC(C)C)C(=O)N[C@@H](Cc3ccc(O)cc3)C(=O)C(=O)N3CCC[C@H]3C(=O)N2)CSSC(C)(C)[C@H](NC(=O)[C@H](Cc2ccccc2)NC(=O)[C@@H](N)CCCNC(=N)N)C(=O)N[C@@H]([C@@H](C)O)C(=O)NCC(=O)N[C@@H](Cc2c[nH]cn2)C(=O)N[C@@H](Cc2ccccc2)C(=O)NCC(=O)N(C)CC(=O)N1C (I: H-RF[Pen]TGHFG[Sar][NMeL][X1]PCG / II: H-RF[Pen]TGHFG[Sar][NMeL][X1]PCG; disulfide I:3-I:13, II:3-II:13; linker I:C-II:C via X2) | – | 120 |
| CC(C)C[C@H]1C(=O)N[C@@H](Cc2ccc(O)cc2)C(=O)C(=O)N2CCC[C@H]2C(=O)N[C@H](C(N)=O)CSSC(C)(C)[C@H](NC(=O)[C@H](Cc2ccccc2)NC(=O)[C@H](CCCNC(=N)N)NC(=O)CN(C)CCNC(=O)CNC(=O)[C@@H]2CSSC(C)(C)[C@H](NC(=O)[C@H](Cc3ccccc3)NC(=O)[C@@H](N)CCCNC(=N)N)C(=O)N[C@@H]([C@@H](C)O)C(=O)NCC(=O)N[C@@H](Cc3c[nH]cn3)C(=O)N[C@@H](Cc3ccccc3)C(=O)NCC(=O)N(C)CC(=O)N(C)[C@@H](CC(C)C)C(=O)N[C@@H](Cc3ccc(O)cc3)C(=O)C(=O)N3CCC[C@H]3C(=O)N2)C(=O)N[C@@H]([C@@H](C)O)C(=O)NCC(=O)N[C@@H](Cc2c[nH]cn2)C(=O)N[C@@H](Cc2ccccc2)C(=O)NCC(=O)N(C)CC(=O)N1C (H-RF[Pen]TGHFG[Sar][NMeL][X1]PCG[NHCH2CH2N(Me)CH2CO]RF[Pen]TGHFG[Sar][NMeL][X1]PC-NH2; disulfide 3-13, 18-28) | – | 130 |
| CC(C)C[C@H]1C(=O)N[C@@H](Cc2ccc(O)cc2)C(=O)C(=O)N2CCC[C@H]2C(=O)N[C@H](C(N)=O)CSSC(C)(C)[C@H](NC(=O)[C@H](Cc2ccccc2)NC(=O)[C@H](CCCNC(=N)N)NCCNC(=O)CCC(=O)N[C@@H](CCCNC(=N)N)C(=O)N[C@@H](Cc2ccccc2)C(=O)N[C@@H]2C(=O)N[C@@H]([C@@H](C)O)C(=O)NCC(=O)N[C@@H](Cc3c[nH]cn3)C(=O)N[C@@H](Cc3ccccc3)C(=O)NCC(=O)N(C)CC(=O)N(C)[C@@H](CC(C)C)C(=O)N[C@@H](Cc3ccc(O)cc3)C(=O)C(=O)N3CCC[C@H]3C(=O)N[C@H](C(N)=O)CSSC2(C)C)C(=O)N[C@@H]([C@@H](C)O)C(=O)NCC(=O)N[C@@H](Cc2c[nH]cn2)C(=O)N[C@@H](Cc2ccccc2)C(=O)NCC(=O)N(C)CC(=O)N1C | 1.6 | 330 |
| CC(C)C[C@H]1C(=O)N[C@@H](Cc2ccc(O)cc2)C(=O)C(=O)N2CCC[C@H]2C(=O)N[C@H](C(N)=O)CSSC(C)(C)[C@H](NC(=O)[C@H](Cc2ccccc2)NC(=O)[C@H](CCCNC(=N)N)NC(=O)CCNC(=O)CCNC(=O)CCNC(=O)CN(C)CCNC(=O)CCC(=O)N[C@@H](CCCNC(=N)N)C(=O)N[C@@H](Cc2ccccc2)C(=O)N[C@@H]2C(=O)N[C@@H]([C@@H](C)O)C(=O)NCC(=O)N[C@@H](Cc3c[nH]cn3)C(=O)N[C@@H](Cc3ccccc3)C(=O)NCC(=O)N(C)CC(=O)N(C)[C@@H](CC(C)C)C(=O)N[C@@H](Cc3ccc(O)cc3)C(=O)C(=O)N3CCC[C@H]3C(=O)N[C@H](C(N)=O)CSSC2(C)C)C(=O)N[C@@H]([C@@H](C)O)C(=O)NCC(=O)N[C@@H](Cc2c[nH]cn2)C(=O)N[C@@H](Cc2ccccc2)C(=O)NCC(=O)N(C)CC(=O)N1C | – | 220 |
| CC(C)C[C@H]1C(=O)N[C@@H](Cc2ccc(O)cc2)C(=O)C(=O)N2CCC[C@H]2C(=O)N[C@H](C(N)=O)CSSC(C)(C)[C@H](NC(=O)[C@H](Cc2ccccc2)NC(=O)[C@H](CCCNC(=N)N)NC(=O)CC(C)(C)CC(=O)N[C@@H](CCCNC(=N)N)C(=O)N[C@@H](Cc2ccccc2)C(=O)N[C@@H]2C(=O)N[C@@H]([C@@H](C)O)C(=O)NCC(=O)N[C@@H](Cc3c[nH]cn3)C(=O)N[C@@H](Cc3ccccc3)C(=O)NCC(=O)N(C)CC(=O)N(C)[C@@H](CC(C)C)C(=O)N[C@@H](Cc3ccc(O)cc3)C(=O)C(=O)N3CCC[C@H]3C(=O)N[C@H](C(N)=O)CSSC2(C)C)C(=O)N[C@@H]([C@@H](C)O)C(=O)NCC(=O)N[C@@H](Cc2c[nH]cn2)C(=O)N[C@@H](Cc2ccccc2)C(=O)NCC(=O)N(C)CC(=O)N1C | – | 100 |
| CC(C)C[C@H]1C(=O)N[C@@H](Cc2ccc(O)cc2)C(=O)C(=O)N2CCC[C@H]2C(=O)N[C@H](C(N)=O)CSSC(C)(C)[C@H](NC(=O)[C@H](Cc2ccccc2)NC(=O)[C@H](CCCNC(=N)N)NC(=O)CCOCCOCCOCCOCCOCCC(=O)N[C@@H](CCCNC(=N)N)C(=O)N[C@@H](Cc2ccccc2)C(=O)N[C@@H]2C(=O)N[C@@H]([C@@H](C)O)C(=O)NCC(=O)N[C@@H](Cc3c[nH]cn3)C(=O)N[C@@H](Cc3ccccc3)C(=O)NCC(=O)N(C)CC(=O)N(C)[C@@H](CC(C)C)C(=O)N[C@@H](Cc3ccc(O)cc3)C(=O)C(=O)N3CCC[C@H]3C(=O)N[C@H](C(N)=O)CSSC2(C)C)C(=O)N[C@@H]([C@@H](C)O)C(=O)NCC(=O)N[C@@H](Cc2c[nH]cn2)C(=O)N[C@@H](Cc2ccccc2)C(=O)NCC(=O)N(C)CC(=O)N1C | – | 110 |
| CC(C)C[C@H]1C(=O)N[C@@H](Cc2ccc(O)cc2)C(=O)C(=O)N2CCC[C@H]2C(=O)N[C@H](C(N)=O)CSSC(C)(C)[C@H](NC(=O)[C@H](Cc2ccccc2)NC(=O)[C@H](CCCNC(=N)N)NC(=O)CN(C)CCNC(=O)CNC(=O)[C@@H]2CSSC(C)(C)[C@H](NC(=O)[C@H](Cc3ccccc3)NC(=O)[C@@H](N)CCCNC(=N)N)C(=O)N[C@@H]([C@@H](C)O)C(=O)NCC(=O)N[C@@H](Cc3cnc[nH]3)C(=O)N[C@@H](Cc3ccccc3)C(=O)NCC(=O)N(C)CC(=O)N(C)[C@@H](CC(C)C)C(=O)N[C@@H](Cc3ccc(O)cc3)C(=O)C(=O)N3CCC[C@H]3C(=O)N2)C(=O)N[C@@H]([C@@H](C)O)C(=O)NCC(=O)N[C@@H](Cc2cnc[nH]2)C(=O)N[C@@H](Cc2ccccc2)C(=O)NCC(=O)N(C)CC(=O)N1C (H-RF[Pen]TGHFG[Sar][NMeL][X1]PCG[NHCH2CH2N(Me)CH2CO]RF[Pen]TGHFG[Sar][NMeL][X1]PC-NH2; disulfide 3-13, 18-28) | 3.9 | – |
| CC(C)C[C@H]1C(=O)N[C@@H](Cc2ccc(O)cc2)C(=O)C(=O)N2CCC[C@H]2C(=O)N[C@H](C(N)=O)CSSC(C)(C)[C@H](NC(=O)[C@H](Cc2ccccc2)NC(=O)[C@H](CCCNC(=N)N)NC(=O)CCNC(=O)CCNC(=O)CCNC(=O)CN(C)CCNC(=O)CCC(=O)N[C@@H](CCCNC(=N)N)C(=O)N[C@@H](Cc2ccccc2)C(=O)N[C@@H]2C(=O)N[C@@H]([C@@H](C)O)C(=O)NCC(=O)N[C@@H](Cc3cnc[nH]3)C(=O)N[C@@H](Cc3ccccc3)C(=O)NCC(=O)N(C)CC(=O)N(C)[C@@H](CC(C)C)C(=O)N[C@@H](Cc3ccc(O)cc3)C(=O)C(=O)N3CCC[C@H]3C(=O)N[C@H](C(N)=O)CSSC2(C)C)C(=O)N[C@@H]([C@@H](C)O)C(=O)NCC(=O)N[C@@H](Cc2cnc[nH]2)C(=O)N[C@@H](Cc2ccccc2)C(=O)NCC(=O)N(C)CC(=O)N1C | 2.4 | – |
| CC(C)C[C@H]1C(=O)N[C@@H](Cc2ccc(O)cc2)C(=O)C(=O)N2CCC[C@H]2C(=O)N[C@H](C(N)=O)CSSC(C)(C)[C@H](NC(=O)[C@H](Cc2ccccc2)NC(=O)[C@H](CCCNC(=N)N)NC(=O)CCC(=O)N(C)CCN(C)C(=O)CCC(=O)N[C@@H](CCCNC(=N)N)C(=O)N[C@@H](Cc2ccccc2)C(=O)N[C@@H]2C(=O)N[C@@H]([C@@H](C)O)C(=O)NCC(=O)N[C@@H](Cc3c[nH]cn3)C(=O)N[C@@H](Cc3ccccc3)C(=O)NCC(=O)N(C)CC(=O)N(C)[C@@H](CC(C)C)C(=O)N[C@@H](Cc3ccc(O)cc3)C(=O)C(=O)N3CCC[C@H]3C(=O)N[C@H](C(N)=O)CSSC2(C)C)C(=O)N[C@@H]([C@@H](C)O)C(=O)NCC(=O)N[C@@H](Cc2c[nH]cn2)C(=O)N[C@@H](Cc2ccccc2)C(=O)NCC(=O)N(C)CC(=O)N1C | 5.2 | 100 |
